Experimental data taken from a flash point compilation (Sun et al. 2020).

Row | flash point [°C] | Compound
1 | 127.00 | Oc1ccccc1O [benzene-1,2-diol]
2 | 138.00 | Nc1cccc(N)c1 [benzene-1,3-diamine]
3 | 113.00 | O=S(=O)(O)c1ccccc1 [benzenesulfonic acid]
4 | 121.00 | O=C(O)c1ccccc1 [benzoic acid]
5 | 80.00 | O=C(OOC(=O)c1ccccc1)c1ccccc1 [benzoyl benzenecarboperoxoate]
6 | 180.00 | O=C(OCc1ccccc1)c1ccccc1O [benzyl 2-hydroxybenzoate]
7 | 130.00 | c1ccc(Cc2ccccc2)cc1 [benzylbenzene]
8 | -21.00 | C1=CC2C=CC1C2 [bicyclo[2.2.1]hepta-2,5-diene]
9 | 185.00 | CCCCC(CC)COC(=O)/C=C\C(=O)OCC(CC)CCCC (configuration not stated) [bis(2-ethylhexyl) (Z)-but-2-enedioate]
10 | 196.00 | CCCCC(CC)COP(=O)(O)OCC(CC)CCCC (configuration not stated) [bis(2-ethylhexyl) hydrogen phosphate]
11 | 210.00 | CC(C)CCCCCOC(=O)CCCCC(=O)OCCCCCC(C)C [bis(6-methylheptyl) hexanedioate]
12 | 190.00 | O=C(OCC1CO1)C1CCCCC1C(=O)OCC1CO1 (configuration not stated) [bis(oxiran-2-ylmethyl) cyclohexane-1,2-dicarboxylate]
13 | 128.00 | OCC#CCO [but-2-yne-1,4-diol]
14 | 77.00 | CCCCO.[Ti] [butan-1-ol;titanium]
15 | 77.00 | CCCC[O-].CCCC[O-].CCCC[O-].CCCC[O-].[Ti+4] [butan-1-olate;titanium(4+)]
16 | -7.00 | CCCC=O [butanal]
17 | 85.00 | CC(O)C(C)O (configuration not stated) [butane-2,3-diol]
18 | -23.00 | CCC(C)S (configuration not stated) [butane-2-thiol]
19 | -60.00 | CCCC [butane]
20 | 52.00 | C=C(C)C(=O)OCCCC [butyl 2-methylprop-2-enoate]
21 | 181.00 | CCCCOC(=O)c1ccc(O)cc1 [butyl 4-hydroxybenzoate]
22 | 53.00 | CCCCOC(=O)CCC [butyl butanoate]
23 | 160.00 | CCCCCCCCCCCCCCCCCC(=O)OCCCC [butyl octadecanoate]
24 | 52.00 | CCCC[Si](Cl)(Cl)Cl [butyl(trichloro)silane]

Row | Compound | flash point [°C]
25 | O=C(Cl)c1cccc(C(=O)Cl)c1 [benzene-1,3-dicarbonyl chloride] | 180.00
26 | O=C(Cl)c1ccccc1 [benzoyl chloride] | 72.00
27 | O=C(Cl)OCc1ccccc1 [benzyl carbonochloridate] | 108.00
28 | CCCCC(CC)COC(=O)c1ccccc1C(=O)OCC(CC)CCCC (configuration not stated) [bis(2-ethylhexyl) benzene-1,2-dicarboxylate] | 207.00
29 | COCCOC(=O)c1ccccc1C(=O)OCCOC [bis(2-methoxyethyl) benzene-1,2-dicarboxylate] | 210.00
30 | CC(C)COC(=O)c1ccccc1C(=O)OCC(C)C [bis(2-methylpropyl) benzene-1,2-dicarboxylate] | 196.00
31 | C=CCOC(=O)c1ccccc1C(=O)OCC=C [bis(prop-2-enyl) benzene-1,2-dicarboxylate] | 110.00
32 | Brc1ccccc1 [bromobenzene] | 51.00
33 | CC(O)CCO (configuration not stated) [butane-1,3-diol] | 121.00
34 | CCCC#N [butanenitrile] | 17.00
35 | CCCC(=O)O [butanoic acid] | 77.00
36 | CCCC(=O)OC(=O)CCC [butanoyl butanoate] | 82.00
37 | CCCCOC(=O)[C@@H](C)Oc1ccc(Oc2ccc(C#N)cc2F)cc1 [butyl (2R)-2-[4-(4-cyano-2-fluorophenoxy)phenoxy]propanoate] | 122.00
